We go through 14 compounds from US4965283A, “Amino acid esters, process for the preparation thereof and use thereof” (Dr. Willmar Schwabe GmbH & Co., priority 1987, dated 1990).

Where a name gives a salt, the structure may show the parent alone. Read-outs that look alike come from different tables or passages of the source.

The subject of the assay is maximum electroshock spasm (MES), extensor spasm in mice. As to the kind of experiment: MES test (maximum electroshock; inhibition of extensor spasm). The format is in vivo, male mice (NMRI). As to conditions: oral; for responders at 50 mg/kg / responders at 100 mg/kg / ED50: Mus musculus, po; for responders at 50 mg/kg / responders at 100 mg/kg / protective action [%] after 1 hr / protective action [%] after 3 hrs: n = 10; for ED 50 values (estimated values) / ED 50 values / ED50: MES test, 1 hour after administration; for ED 50 values (estimated values): * estimated from several tests with different dosages; for responders at 50 mg/kg / protective action [%] after 1 hr / protective action [%] after 3 hrs: 50 mg/kg; for ED50: read-out: ED 50 values. From the text: For the determination of the anticonvulsive/anti-epileptic activity of the substances according to the present invention the method described by E. A. Swinyard et al., J. Pharmacol. exp. Therapeut. 106, 319-330 (1952) and by L. A. Woodbury et al., Arch. int. Pharmacodyn., 92, 97-107 (1952) was used. To male mice (NMRI) with a body weight of 20-25 g via corneal electrodes, an alternating current of 50 Hz and 50 mA is applied for 0.2 sec. (HSE-shock stimulation apparatus; type 207). The maximum electroshock spasm (MES) consists of a tonic extension of the rear extremities, the clonic twitch and loss of consciousness. The activity criterion is taken as being the inhibition of the extensor spasm by the substances according to the present invention. Before the experiments the mice had free access to feed and water. The test substances were administered orally as suspensions in 0.2% agar by stomach tubes; the control animals received adequate volumes of agar. 1 hour and 3 hours after administration the test for protective action against MES was carried out.
As percentage action the percentage proportion of those animals which in the MES test were protected 100% against the extensor spasm is given. 10 animals were used per test.
The ED 50 values were determined according to Lichtfield and Wilcoxon J. Pharmacol. exp. Therapeut. 96, 99 (1949) in each case with 4 to 5 animal groups each of 8-10 animals per dosage stage.

Setting [1] is: 1 h, 1 hr after administration, read-out: protective action [%] after 1 hr.
[2] abbreviates: 3 h, 3 hrs after administration, read-out: protective action [%] after 3 hrs.
[3] abbreviates: 3 hrs after administration, hydrochloride.

Consider `COC1=CC(=O)OC1C(OC(=O)[C@H](Cc1ccccc1)N=C(C)C)c1ccccc1Cl` (single isomer, unassigned) [121 A], for which the responders at 50 mg/kg runs as follows: under setting [1], 100%; under setting [2], 90%.
For the compound `COC1=CC(=O)OC1C(OC(=O)[C@@H]1CCCN1)c1ccccc1C(F)(F)F` (single isomer, unassigned) [139 A], the “ED 50 values (estimated values)” value is 15 to 20 mg/kg. Besides, the responders at 50 mg/kg under setting [1] is 100%. Further, the responders at 50 mg/kg under setting [2] came out at 50%.
`COC1=CC(=O)OC1C(OC(=O)[C@@H]1CCCN1)c1ccc(Cl)cc1Cl` (single isomer, unassigned) [135 A]: the “ED 50 values (estimated values)” value is 65 to 75 mg/kg. Under setting [1], the responders at 100 mg/kg was determined as 100%. The responders at 100 mg/kg under setting [2] worked out at 100%.
Consider `Br.COC1=CC(=O)OC1C(OC(=O)CN)c1ccccc1Cl` (single isomer, unassigned; (+)) [Example 151, (+)-threo-5-[2-chlorophenyl-(glycyloxy)-methyl]-4-methoxy-2(5H)-furanone hydrobromide], for which the “ED 50 values” is reported as 12.2 mg/kg. Moreover, under “1 hr after administration”, the “protective action [%] after 1 hr” value is listed as 100%. Further, where the note is “3 hrs after administration”, the “protective action [%] after 3 hrs” value is recorded as 100%.
Regarding `COC1=CC(=O)OC1C(OC(=O)[C@@H]1CCCN1C(=O)OCc1ccccc1)c1ccccc1C(F)(F)F` (single isomer, unassigned) [138 A], the responders at 100 mg/kg under setting [1] amounted to 30% and the responders at 100 mg/kg under setting [2] was 20%.
Take `COC1=CC(=O)O[C@H]1[C@H](OC(=O)CN)c1ccccc1Cl` (relative stereo) [Example 112, threo-5-[2-chlorophenyl-glycyloxy)methyl-4-methoxy-2(5H)-furanone hydrochloride]: the “protective action [%] after 3 hrs” value under setting [3] is given as 70%. For the same compound, the “ED 50 values” (hydrochloride, 60 min) came to 22.2 mg/kg.
Take `COC1=CC(=O)OC1C(OC(=O)[C@@H]1CCCN1C(=O)OCc1ccccc1)c1cc(Cl)ccc1Cl` (single isomer, unassigned) [136 A]: the “ED 50 values (estimated values)” value was 40 to 50 mg/kg. Moreover, the responders at 50 mg/kg under setting [1] was 60%. The responders at 50 mg/kg under setting [2] is 50%.
As to `COC1=CC(=O)OC1C(OC(=O)[C@@H](N)CCC(=O)O)c1ccccc1Cl` (single isomer, unassigned) [123 A], the responders at 50 mg/kg came to 70% under setting [1] and 20% under setting [2].
For the compound `COC1=CC(=O)OC1C(OC(=O)[C@@H]1CCC(=O)N1)c1ccccc1Cl` (single isomer, unassigned) [125 A], the responders at 50 mg/kg runs as follows: under setting [1], 100%; under setting [2], 80%.
Turning to `COC1=CC(=O)OC1C(OC(=O)[C@@H]1CCCN1)c1cc(Cl)ccc1Cl` (single isomer, unassigned) [137 A], the responders at 50 mg/kg runs as follows: under setting [1], 100%; under setting [2], 100%.
With `COC1=CC(=O)OC1C(OC(=O)CNC(=O)C(C)(C)C)c1ccccc1Cl` (single isomer, unassigned; (+)) [Example 152, (+)-threo-5-[2-chlorophenyl-(N-pivaloylglycyloxy)-methyl]-4-methoxy-2(5H)-furanone], the “ED 50 values” amounted to 16.3 mg/kg. Moreover, the “protective action [%] after 1 hr” value (1 hr after administration) was determined as 100%. The “protective action [%] after 3 hrs” value (3 hrs after administration) is given as 90%.
As to `COC1=CC(=O)O[C@H]1[C@H](OC(=O)CCCN)c1ccccc1Cl` (relative stereo) [Example 114, threo-5-[4-aminobutanoyloxy-(2-chlorophenyl)-methyl]-4-methoxy-2(5H)-furanone hydrochloride], the “protective action [%] after 3 hrs” value under setting [3] came out at 30%. For the same compound, the ED50 (1 h) was determined as 40 mg/kg.
Regarding `COC1=CC(=O)OC1C(OC(=O)[C@@H](N)c1ccccc1)c1ccccc1Cl` (single isomer, unassigned) [117 A], under “3 hrs after administration”, the “protective action [%] after 3 hrs” value was found to be 100%. In addition, the responders at 50 mg/kg under setting [1] turned out to be 100%. Moreover, the ED50 (1 h) amounted to 16 mg/kg.
Consider `COC1=CC(=O)OC1C(OC(=O)[C@H](CCSC)NC(C)=O)c1ccccc1Cl` (single isomer, unassigned) [124 A], for which the “ED 50 values (estimated values)” value is 25 to 35 mg/kg. In addition, the responders at 100 mg/kg under setting [1] was 100%. In addition, the responders at 100 mg/kg under setting [2] came to 20%.
